Results on 27 compounds are retold here after patent publication US20050148534A1, “Small molecule compositions and methods for increasing drug efficiency using compositions thereof” (priority 2003, published 2005).

Several values for one entry are separate records, joined by “and”; a condition that tells them apart may be missing. Equal entries are not always repeated. Where two headings read alike, the source gives them in different places.

For one experiment, the target named is T1, TK2 (Homo sapiens, UniProt O00142).
T1 sequence (O00142 34-265): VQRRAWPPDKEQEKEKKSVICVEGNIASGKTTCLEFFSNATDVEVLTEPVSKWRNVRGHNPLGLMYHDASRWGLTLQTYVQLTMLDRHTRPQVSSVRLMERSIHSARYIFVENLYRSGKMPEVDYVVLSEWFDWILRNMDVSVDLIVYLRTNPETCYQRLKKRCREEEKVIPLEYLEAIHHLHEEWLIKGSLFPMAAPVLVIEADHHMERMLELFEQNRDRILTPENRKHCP
More on the design: unit not given here. To be noted: substrate activity, literature (Johansson et al.; Eriksson et al.; Wang et al.), source per Table 3, cited from earlier work.

In experiment [1] the target is deoxycytidine kinase (dCK) (Homo sapiens, UniProt P27707). Particulars: substrate activity; literature (Johansson et al.; Eriksson et al.; Wang et al.), source per Table 3; cited from earlier work.
The target of the next experiment is T2, TK1 (Homo sapiens, UniProt P04183).
T2 sequence (P04183 1-234): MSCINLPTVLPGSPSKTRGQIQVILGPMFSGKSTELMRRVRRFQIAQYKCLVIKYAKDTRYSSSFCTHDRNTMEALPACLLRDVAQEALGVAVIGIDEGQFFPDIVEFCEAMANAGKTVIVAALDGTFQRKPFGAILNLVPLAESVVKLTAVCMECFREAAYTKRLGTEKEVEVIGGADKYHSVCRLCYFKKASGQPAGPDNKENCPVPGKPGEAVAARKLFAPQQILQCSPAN
To be noted: substrate activity; literature (Johansson et al.; Eriksson et al., BBCR 1991; 176, 586), source per Table 3; cited from earlier work.

A further experiment deals with tubulin. Description: Fluorescence-based microtubule polymerization assay (MPA). In kind it is biochemical. Particulars: mean percentage of paclitaxel or vinblastine activity; 0.75-10 micromolar. The source says: Drug-linker constructs may further be screened using functional assays predictive of biological activity. […] Tubulin assembly or inhibition thereof may be monitored by fluorescence using the CytoDYNAMIX Screen™ 10 kit available from Cytoskeleton (1830 S. Acoma St., Denver, Colo.). […] Emission is monitored at 405 nm with excitation at 360 nm. […] Tubulin assembly or inhibition may also be monitored by light scattering which is approximated by the apparent absorption at 350 nm. For paclitaxel drug conjugates BSA is employed to prevent aggregation and glycerol, which is a tubulin polymerization enhancer, is omitted from the kit to increase the signal to noise ratio.
The assay kit (#BK011) was purchased from Cytoskeleton (Denver, Colo.). The assays were carried out according to the manufacturer's instructions, except that 1 mg/ml BSA (Sigma #A3059) was included in all assays. […] Parent drugs and conjugates were tested at 0.75, 1.5, 3 and 10 micromolar final concentration and results represent a comparison of conjugate and parent drug curves obtained from the linear range of the dose responses.

deoxycytidine kinase (dCK), sequence (P27707 whole entry, species assumed): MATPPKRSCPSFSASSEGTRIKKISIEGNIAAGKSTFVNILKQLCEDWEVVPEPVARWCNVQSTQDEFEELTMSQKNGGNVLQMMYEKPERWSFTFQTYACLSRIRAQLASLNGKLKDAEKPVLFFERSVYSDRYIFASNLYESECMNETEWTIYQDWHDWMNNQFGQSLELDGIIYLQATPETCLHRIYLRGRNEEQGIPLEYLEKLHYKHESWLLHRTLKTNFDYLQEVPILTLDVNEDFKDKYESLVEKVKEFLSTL

On to `Cc1cn([C@H]2C[C@H](O)[C@@H](CO)O2)c(=O)[nH]c1=O` [R4 = H, R3 = OH (Thy), Thy], for which, at TK2, the TK2 is 100. Also, the dCK in experiment [1] was 2. Besides, on TK1, the TK1 is given as 100.

In the case of `C#C[C@H]1C[C@H](n2cc(C)c(=O)[nH]c2=O)O[C@@H]1CO` [R4 = H, R3 = CCH], the TK2 at TK2 is below 1. Besides, the TK1 at TK1 is on record as below 1.

`Cc1cn([C@@H]2O[C@H](CO)[C@@H](O)[C@H]2O)c(=O)[nH]c1=O` [R4 = OH, R3 = OH (RiboThymidine), RiboThymidine]: the TK2 at TK2 was 3. The TK1 on TK1 is given as 2.

Consider `O=c1ccn([C@H]2CC[C@@H](CO)O2)c(=O)[nH]1` [R2 = H, R4 = H, R3 = H (ddU), ddU], for which the TK2 on TK2 was 2. Also, in experiment [1], the dCK was below 1. For the same compound, the TK1 at TK1 is recorded as 10.

Consider `CC(=O)O[C@@]12CO[C@@H]1C[C@H](O)[C@@]1(C)C(=O)[C@H](OC(=O)CCCCCCNC(=O)OCc3ccccc3)C3=C(C)[C@@H](OC(=O)[C@H](O)[C@@H](NC(=O)c4ccccc4)c4ccccc4)C[C@@](O)([C@@H](OC(=O)c4ccccc4)[C@H]21)C3(C)C` [PXL-10Es-Alk(6)-NH(Z)], for which the “Ave. MPA Act” value with tubulin is reported as “A (A<60)”.

In the case of `Cc1cn([C@@H]2O[C@H](CO)[C@@H](O)[C@@H]2F)c(=O)[nH]c1=O` [R2 = CH3, R5 = F (FMAU), FMAU], the TK2 at TK2 was 100. In addition, at TK1, the TK1 is on record as 45.

For “4-deacetyl-3-de-(methoxycarbonyl)-vinblastin-3-yl-N-{N′-Boc-2-[2-[2-[2-ethoxy]ethoxy]ethoxy]ethylamino}-aminocarbonyl) [VBL-3Am-PEG(11)-NH(B)]”, the “Ave. MPA Act” value in the experiment on tubulin was “B (B=60-100)”.

Regarding `CC(=O)O[C@H]1C(=O)[C@]2(C)[C@@H](OC(=O)NCCCCCCN)C[C@H]3OC[C@@]3(OC(C)=O)[C@H]2[C@H](OC(=O)c2ccccc2)[C@]2(O)C[C@H](OC(=O)[C@H](O)[C@@H](NC(=O)c3ccccc3)c3ccccc3)C(C)=C1C2(C)C` [PXL-7Ca-ALK(6)-NH2], the “Ave. MPA Act” value with tubulin was “A (A<60)”.

On to `CC(=O)O[C@@]12CO[C@@H]1C[C@H](O)[C@@]1(C)C(=O)[C@H](OC(=O)CCCCCN)C3=C(C)[C@@H](OC(=O)[C@H](O)[C@@H](NC(=O)c4ccccc4)c4ccccc4)C[C@@](O)([C@@H](OC(=O)c4ccccc4)[C@H]21)C3(C)C` [PXL-10Es-ALK(5)-NH2], for which, in the experiment with tubulin, the “Ave. MPA Act” value was “B (B=60-100)”.

Take `Cc1cn([C@H]2CC[C@@H](CO)O2)c(=O)[nH]c1=O` [R4 = H, R3 = H]: the TK2 on TK2 is given as 4. In addition, the dCK in experiment [1] was below 1. The TK1 on TK1 is listed as 40.

On to `O=c1[nH]c(=O)n([C@H]2C[C@H](O)[C@@H](CO)O2)cc1Br` [R2 = Br, R4 = H, R3 = OH], for which the TK2 at TK2 is reported as 10. Moreover, in experiment [1], the dCK is listed as below 1. Further, the TK1 on TK1 is listed as 80.

Turning to `CC[C@]1(O)C[C@@H]2CN(CCc3c([nH]c4ccccc34)[C@@](C(=O)OC)(c3cc4c(cc3OC)N(C)[C@H]3[C@@](O)(C(=O)NCCCCCCCCCCCCNC(=O)OC(C)(C)C)[C@H](O)[C@]5(CC)C=CCN6CC[C@]43[C@@H]65)C2)C1` [VBL-3Am-ALK(12)-NH(B)], in the experiment on tubulin, the “Ave. MPA Act” value was “A (A<60)”.

`C=CCOC(=O)O[C@@H](C(=O)O[C@H]1C[C@@]2(O)[C@@H](OC(=O)c3ccccc3)[C@@H]3[C@]4(OC(C)=O)CO[C@@H]4C[C@H](O)[C@@]3(C)C(=O)[C@H](OC(C)=O)C(=C1C)C2(C)C)[C@@H](NC(=O)c1ccccc1)c1ccccc1` [PXL-2′Alloc]: the “Ave. MPA Act” value with tubulin was “A (A<60)”.

Turning to `Cc1cn([C@H]2C[C@H](CN=[N+]=[N-])[C@@H](CO)O2)c(=O)[nH]c1=O` [R4 = H, R3 = CH2N3], the TK2 at TK2 was 3. For the same compound, the TK1 on TK1 is reported as 15.

For `O=c1ccn([C@H]2C[C@H](O)[C@@H](CO)O2)c(=O)[nH]1` [R2 = H, R4 = H, R3 = OH (dU), dU], the TK2 on TK2 is 100. Also, the dCK in experiment [1] was 6. On TK1, the TK1 is given as 100.

As to `Nc1ccn([C@@H]2O[C@H](CO)[C@@H](O)[C@@H]2O)c(=O)n1` [R4 = H, R5 = OH, R3 = OH (Cytosar, AraC), AraC], the TK2 on TK2 is listed as below 1. The TK1 on TK1 is listed as below 1.

`O=c1[nH]c(=O)n([C@@H]2O[C@H](CO)[C@@H](O)[C@@H]2F)cc1I` [R2 = I, R5 = F (FIAU), FIAU]: at TK2, the TK2 is 90. For the same compound, on TK1, the TK1 is listed as 42.

With `Nc1ccn([C@H]2C[C@H](O)[C@@H](CO)O2)c(=O)n1` [R4 = H, R5 = H, R3 = OH (dC), dC], the TK2 at TK2 was 90; at TK2 (listed as R2 = H, X = C (dC)) it was 90; on TK2 (listed as R4 = H, R5 = H, R2 = H (dC)), 90; at TK2 (listed as β-D-dC), 93. Moreover, at TK1, the TK1 is below 1.

In the case of `CC[C@]1(O)C[C@@H]2CN(CCc3c([nH]c4ccccc34)[C@@](C(=O)OC)(c3cc4c(cc3OC)N(C)[C@H]3[C@@](O)(C(=O)NCCCCCCCCCCCCN)[C@H](O)[C@]5(CC)C=CCN6CC[C@]43[C@@H]65)C2)C1` [VBL-3Am-ALK(12)-NH2], the “Ave. MPA Act” value with tubulin was “B (B=60-100)”.

Take `CC[C@]1(O)C[C@@H]2CN(CCc3c([nH]c4ccccc34)[C@@](C(=O)OC)(c3cc4c(cc3OC)N(C)[C@H]3[C@@](O)(C(=O)NN)[C@H](O)[C@]5(CC)C=CCN6CC[C@]43[C@@H]65)C2)C1` [Desacetylvinblastine monohydrazine]: the “Ave. MPA Act” value with tubulin is reported as “C (C>100)”.

On to `Cc1cn([C@H]2C[C@H](F)[C@@H](CO)O2)c(=O)[nH]c1=O` [R4 = H, R3 = F (FLT), FLT], for which the TK2 at TK2 is listed as below 1. Moreover, the dCK in experiment [1] is reported as below 1. Further, the TK1 on TK1 is reported as 30.

As for `CC[C@]1(O)C[C@@H]2CN(CCc3c([nH]c4ccccc34)[C@@](C(=O)OC)(c3cc4c(cc3OC)N(C)[C@H]3[C@@](O)(C(=O)NCCCCCCN)[C@H](O)[C@]5(CC)C=CCN6CC[C@]43[C@@H]65)C2)C1` [VBL-3Am-ALK(6)-NH2], in the experiment with tubulin, the “Ave. MPA Act” value is listed as “C (C>100)”.

Turning to `CC[C@]1(O)C[C@@H]2CN(CCc3c([nH]c4ccccc34)[C@@](C(=O)OC)(c3cc4c(cc3OC)N(C)[C@H]3[C@@](O)(C(=O)OC)[C@H](O)[C@]5(CC)C=CCN6CC[C@]43[C@@H]65)C2)C1` [Desacetyl vinblastine], the “Ave. MPA Act” value with tubulin is “C (C>100)”.

Regarding `CCc1cn([C@H]2C[C@H](O)[C@@H](CO)O2)c(=O)[nH]c1=O` [R2 = Et, R4 = H, R3 = OH], the TK2 at TK2 is recorded as 10. For the same compound, the TK1 at TK1 is recorded as 80.

For the compound `Cc1cn([C@H]2C[C@H](N=[N+]=[N-])[C@@H](CO)O2)c(=O)[nH]c1=O` [R4 = H, R3 = N3 (AZT), AZT], the TK2 at TK2 is recorded as 5. Further, the dCK in experiment [1] is reported as below 1. In addition, the TK1 on TK1 is 50 and 40.

Regarding `O=c1[nH]c(=O)n([C@H]2C[C@H](O)[C@@H](CO)O2)cc1F` [R2 = F, R4 = H, R3 = OH], at TK2, the TK2 is 90. At TK1, the TK1 was 90.

Turning to `Nc1cc[nH]c(=O)n1` [R4 = OH, R5 = H, R2 = H (Cytosine), Cytosine], the TK2 on TK2 is below 1. Further, the dCK in experiment [1] is recorded as 20. At TK1, the TK1 is below 1.
